Laboratory results reported in patent US10723813B2, “PDGF-B /PDGF-BB binding variants of heparan sulfates” (Agency for Science, Technology and Research, priority 2015, dated 2020).
“Also recorded” adds a separate entry of the source.

What was measured:
Assay type in all cases: cell-based
[1] = tested on: human dermal fibroblast (HDF); assay: HDF proliferation (Guava Viacount, 72 hrs)
Procedure: Proliferation Protocol: • 1. Thaw human dermal fibroblast (HDF, Cascade Biologics) into a T75 in maintenance medium at 5×10^3 cells/cm^2 (α-MEM, 10% FCS, P/S) at 37° C. 5% CO^2 humidified incubator. • 2. At 70-80% confluence, wash cells in PBS twice, add 1 ml of 0.125% trypsin and incubate for 3 mins. Tap the dish and stop the trypsin by adding 5 ml of medium. Centrifuge cells down at 180 g for 7 mins. • 3. Count total number of cells. • 4. Seed cells at 500 μl of 3000 cells/cm^2 cell suspension per well and place the plates into the incubator for 24 hrs. • 5. Change media to α-MEM, 1% FCS, P/S media for 24 hrs. • 6. Treat cells with PDGF-BB and HS fractions. • 7. After 72 hrs, wash cells with PBS and add 100 ul of trypsin, incubate for 3 mins. • 8. Add 100 ul of Guava Viacount dye mastermix into each well of trypsinize cells. • 9. Transfer total volume of 200 ul of cells per well into a 96 well Guava plate. Results:
The proliferation protocol described in Example 9 was used.

[2] = tested on: human N-TERT/1 keratinocytes; assay: Scratch wound assay on keratinocytes; settings: confluent N-TERT/1, IncuCyte; increasing amounts (FIG. 31)
[3] = tested on: human dermal fibroblast (HDF); assay: HDF migration scratch assay (IncuCyte)
Procedure: Migration Protocol: • 1. Seed 10,000 HDF per well in maintenance media, into a 96 well ImageLock plate. • 2. After 24 hrs, change media to 1% α-MEM • 3. Once cells are confluent, scratch the surface using the wound maker and wash once with PBS. • 4. Add 100 μl of treatment media into each well and place plate into IncuCyte and run for 40 hours. • 5. Program is set up to take photo every 2 hours. Results:
The migration protocol from Example 11 was followed using a range of HS6+ doses (20 μg/mL, 40 μg/mL, 60 μg/mL) with 5 ng/ml PDGF-BB.

[4] = tested on: human dermal fibroblasts (HDFs); assay: In vitro proliferation of HDFs (Example 15), with or without PDGFR/FGFR1 inhibitors; settings: FIG. 30
Procedure: FIG. 29. Charts showing proliferative effect of PDGF-BB and HS6 on human dermal fibroblasts: (A) PDGF-BB (1, 2.5, 5, 10, 25 ng/ml), (B) HS6 (0.25, 0.5, 1, 2.5, 5, 10, 25 μg HS6), (C) 2.5 ng PDGF-BB+HS6 (0, 0.25, 0.5, 1, 2.5, 5, 10, 25 μg).
FIG. 30. Charts showing effect of PDGFR and FGFR inhibition. (A) Effect of PDGFR inhibitor JNJ-10198409; (B) Effect of FGFR1 inhibitor SU5402.

Compound | HDF proliferation, dosing ([1]; 72 hrs, increasing concentration of the substance) | Optimal concentration for proliferation ([1]; HDF, 72 hrs) | Viability of HDF ([1]; higher concentration of PDGF-BB) | Closure of the scratch wound, keratinocytes [2] | PDGF-BB concentration up to which rate of wound closure increases [3] | Rate of closure at more than 10 ng/mL PDGF-BB [3] | HDF migration, PDGF-BB dosing ([3]; PDGF-BB alone) | Stimulation of proliferation in the presence of inhibitor [4]
PDGF-BB: homodimer of platelet-derived growth factor B; recombinant (R&D) | dose dependently increase HDF proliferation; also recorded: dose dependent increase in proliferation | 10 ng/mL | decreased viability | able to improve the closure | up to 10 ng/mL | does not speed up the rate of closure | induces HDF migration | –
Cc1c[nH]c(/C=C2\C(=O)Nc3ccccc32)c1CCC(=O)O [SU5402] | – | – | – | – | – | – | – | also inhibited—but not as strongly
COc1cc2c(cc1OC)-c1[nH]nc(Nc3cccc(F)c3)c1C2 [JNJ-10198409] | – | – | – | – | – | – | – | very strongly inhibited
